According to Sander's compilation of Henry's law constants:

Experiment: Henry solubility constant Hcp at 298.15 K (mol/(m3 Pa))
[1] = reference: Cetin and Odabasi (2005)
[2] = reference: Charles and Destaillats (2005)
[3] = reference: Murphy et al. (1983a)
[4] = reference: Kawamoto and Urano (1989)
[5] = reference: Copolovici and Niinemets (2005)
[6] = reference: Roberts and Pollien (1997)
[7] = reference: Druaux et al. (1998)
[8] = reference: Chang and Criddle (1995)

In the case of `CCCCCC(=O)OCC` [ethyl hexanoate], the “Henry solubility constant Hcp” value (reference: Aprea et al. (2007)) is reported as 0.014, the “Henry solubility constant Hcp” value (reference: Landy et al. (1995)) is reported as 0.0094 and the “Henry solubility constant Hcp” value (reference: Landy et al. (1996)) is reported as 0.016.
For `COc1ccccc1` [methoxybenzene], the “Henry solubility constant Hcp” value (reference: Brockbank et al. (2013)) was 0.029.
In the case of `O=C1CCCCC1` [cyclohexanone], the “Henry solubility constant Hcp” value (reference: Hawthorne et al. (1985)) is reported as 0.82.
In the case of `Cc1ccco1` [2-methylfuran], the “Henry solubility constant Hcp” value (reference: Wieland et al. (2015)) is reported as 0.0015.
In the case of `NCl` [chloramine], the “Henry solubility constant Hcp” value (reference: Holzwarth et al. (1984)) is reported as 0.92.
For `CCOC(C)(C)CC(C)(C)C` [2-ethoxy-2,4,4-trimethylpentane], the “Henry solubility constant Hcp” value (reference: Haimi et al. (2006)) was 0.00077.
For `FC(F)(Cl)C(F)(F)Cl` [1,2-dichlorotetrafluoroethane], the “Henry solubility constant Hcp” value (reference: Reichl (1995)) was 9e-06.
In the case of `Brc1ccc(Oc2c(Br)cc(Br)cc2Br)c(Br)c1` [2,2',4,4',6-pentabromodiphenyl ether], the “Henry solubility constant Hcp” value [1] is reported as 3.8, the “Henry solubility constant Hcp” value [2] is reported as 0.19 and the “Henry solubility constant Hcp” value (reference: Long et al. (2017)) is reported as 3.6.
In the case of `CCCc1ccc(O)c(OC)c1` [4-propylguaiacol], the “Henry solubility constant Hcp” value (reference: McFall et al. (2020)) is reported as 4.3.
With `Clc1ccc(-c2c(Cl)cc(Cl)c(Cl)c2Cl)cc1Cl` [2,3,3',4,4',6-hexachlorobiphenyl] the “Henry solubility constant Hcp” value [3] was 0.015.
In the case of `O=[N+]([O-])c1ccccc1` [nitrobenzene], the “Henry solubility constant Hcp” value (reference: Warner et al. (1980)) is reported as 0.41.
With `ClCC(Cl)Cl` [1,1,2-trichloroethane] the “Henry solubility constant Hcp” value (reference: Bobadilla et al. (2003)) was 0.012.
With `CCCCNC(C)=O` [N-butylacetamide] the “Henry solubility constant Hcp” value (reference: Gibbs et al. (1991)) was 2700.
For `CCCCCCO` [1-hexanol], the “Henry solubility constant Hcp” value (reference: Gupta et al. (2000)) was 0.39, the “Henry solubility constant Hcp” value (reference: Lei et al. (2007)) was 0.51 and the “Henry solubility constant Hcp” value (reference: Shunthirasingham et al. (2013)) was 0.57. The “Henry solubility constant Hcp” value (reference: Souchon et al. (2004)) was 0.38.
With `O=NO` [nitrous acid] the “Henry solubility constant Hcp” value (reference: Becker et al. (1996)) was 0.47, the “Henry solubility constant Hcp” value (reference: Becker et al. (1998)) was 0.47 and the “Henry solubility constant Hcp” value (reference: Komiyama and Inoue (1978)) was 0.37. For the same compound, the “Henry solubility constant Hcp” value (reference: Park and Lee (1988)) was 0.48.
For `CNCCCN` [N-methyl-1,3-propanediamine], the “Henry solubility constant Hcp” value (reference: Kim et al. (2008)) was 2100 and the “Henry solubility constant Hcp” value (reference: Nguyen (2013)) was 1400.
For `FN(F)N(F)F` [dinitrogen tetrafluoride], the “Henry solubility constant Hcp” value (reference: Dean et al. (1973)) was 8.4e-06.
For `CCCCCCCC(=O)OC` [methyl octanoate], the “Henry solubility constant Hcp” value (reference: Aprea et al. (2007)) was 0.0099.
With `O=C1OCc2c(Cl)c(Cl)c(Cl)c(Cl)c21` [4,5,6,7-tetrachlorophthalide] the “Henry solubility constant Hcp” value [4] was 18.
In the case of `S=C=S` [carbon disulfide], the “Henry solubility constant Hcp” value (reference: De Bruyn et al. (1995b)) is reported as 0.00054 and the “Henry solubility constant Hcp” value (reference: Elliott (1989)) is reported as 0.00062.
In the case of `[O][Cl+][O-]` [chlorine dioxide], the “Henry solubility constant Hcp” value (reference: Bigorgne (1947)) is reported as 0.0066, the “Henry solubility constant Hcp” value (reference: Holst (1944)) is reported as 0.0097 and the “Henry solubility constant Hcp” value (reference: Ishi (1958)) is reported as 0.011. For the same compound, the “Henry solubility constant Hcp” value (reference: Kepinski and Trzeszczynski (1964)) was 0.01 and the “Henry solubility constant Hcp” value (reference: Taube and Dodgen (1949)) was 0.01.
In the case of `Clc1ccc(-c2cc(Cl)ccc2Cl)c(Cl)c1` [2,2',4,5'-tetrachlorobiphenyl], the “Henry solubility constant Hcp” value [3] is reported as 0.049.
In the case of `Brc1ccc(Oc2ccc(Br)cc2Br)cc1` [2,4,4'-tribromodiphenyl ether], the “Henry solubility constant Hcp” value [1] is reported as 0.18, the “Henry solubility constant Hcp” value [2] is reported as 0.12 and the “Henry solubility constant Hcp” value (reference: Long et al. (2017)) is reported as 0.16.
For `CCCCc1ccccc1` [butylbenzene], the “Henry solubility constant Hcp” value (reference: Perlinger et al. (1993)) was 0.00062.
For `CCCCC(C)=O` [2-hexanone], the “Henry solubility constant Hcp” value (reference: Chai et al. (2005)) was 0.086, the “Henry solubility constant Hcp” value (reference: Hovorka et al. (2019)) was 0.099 and the “Henry solubility constant Hcp” value (reference: Straver and de Loos (2005)) was 0.11.
With `CC1=CCC(=C(C)C)CC1` [1-methyl-4-(1-methylethylidene)-cyclohexene] the “Henry solubility constant Hcp” value [5] was 0.00038.
With `CCCCCCC(=O)O` [heptanoic acid] the “Henry solubility constant Hcp” value (reference: Kim and Kim (2016)) was 15.
For `CCc1ncc(C)nc1CC` [2,3-diethyl-5-methylpyrazine], the “Henry solubility constant Hcp” value [6] was 0.81.
With `c1ccc2cc3ccccc3cc2c1` [anthracene] the “Henry solubility constant Hcp” value (reference: Alaee et al. (1996)) was 0.2, the “Henry solubility constant Hcp” value (reference: Bamford et al. (1999b)) was 0.15 and the “Henry solubility constant Hcp” value (reference: Reza and Trejo (2004)) was 0.23. For the same compound, the “Henry solubility constant Hcp” value (reference: Southworth (1979)) was 0.15 and the “Henry solubility constant Hcp” value (reference: Webster et al. (1985)) was 0.27.
In the case of `Clc1ccc(Cl)c(-c2cccc(Cl)c2Cl)c1` [2,2',3,5'-tetrachlorobiphenyl], the “Henry solubility constant Hcp” value [3] is reported as 0.041.
With `CCCN(CCC)C(=O)SCC` [S-ethyl dipropylthiocarbamate] the “Henry solubility constant Hcp” value (reference: Breiter et al. (1998)) was 0.038 and the “Henry solubility constant Hcp” value (reference: Reyes-Pérez et al. (2008)) was 0.56.
In the case of `C=C(C)[C@@H]1CC=C(C)CC1` [(S)-1-methyl-4-(1-methylethenyl)-cyclohexene], the “Henry solubility constant Hcp” value [5] is reported as 0.00035 and the “Henry solubility constant Hcp” value (reference: Schuhfried et al. (2015)) is reported as 0.00037.
For `NCCCCCCN` [1,6-hexanediamine], the “Henry solubility constant Hcp” value (reference: Nguyen (2013)) was 1000.
For `FC(F)=CCl` [2-chloro-1,1-difluoroethene], the “Henry solubility constant Hcp” value (reference: Maaßen (1995)) was 0.00017 and the “Henry solubility constant Hcp” value (reference: Reichl (1995)) was 0.00017.
With `CC(=O)C(=O)O` [2-oxopropanoic acid] the “Henry solubility constant Hcp” value (reference: Khan and Brimblecombe (1992)) was 3100, the “Henry solubility constant Hcp” value (reference: Khan et al. (1992)) was 3100 and the “Henry solubility constant Hcp” value (reference: Khan et al. (1995)) was 3100.
In the case of `O=[N+]([O-])c1ccc(Oc2c(Cl)cc(Cl)cc2Cl)cc1` [2,4,6-trichlorophenyl 4-nitrophenyl ether], the “Henry solubility constant Hcp” value [4] is reported as > 8.1.
For `CCCCCCCCCC=O` [decanal], the “Henry solubility constant Hcp” value (reference: Buttery et al. (1965)) was 0.17.
In the case of `ClCC(Cl)CCl` [1,2,3-trichloropropane], the “Henry solubility constant Hcp” value (reference: Tancrède and Yanagisawa (1990)) is reported as 0.044.
For `CCCCCN` [1-pentanamine], the “Henry solubility constant Hcp” value (reference: Amoore and Buttery (1978)) was 0.31 and the “Henry solubility constant Hcp” value (reference: Christie and Crisp (1967)) was 0.4.
In the case of `CCCCCCCC` [octane], the “Henry solubility constant Hcp” value (reference: Heidman et al. (1985)) is reported as 3.1e-06, the “Henry solubility constant Hcp” value (reference: Jönsson et al. (1982)) is reported as 2.9e-06 and the “Henry solubility constant Hcp” value (reference: Park et al. (1997)) is reported as 3.3e-06.
With `C1CNCCN1` [1,4-diazacyclohexane] the “Henry solubility constant Hcp” value (reference: Nguyen (2013)) was 4500.
For `CCc1cccc2ccccc12` [1-ethylnaphthalene], the “Henry solubility constant Hcp” value (reference: Schwarz and Wasik (1977)) was 0.022.
With `C1COCO1` [1,3-dioxolane] the “Henry solubility constant Hcp” value (reference: Ondo and Dohnal (2007)) was 0.43.
In the case of `C[C@@H]1CCCC[C@H]1C` (relative stereo) [trans-1,2-dimethylcyclohexane], the “Henry solubility constant Hcp” value (reference: Dohányosová et al. (2004)) is reported as 1.6e-05.
In the case of `CS(C)=O` [dimethylsulfoxide], the “Henry solubility constant Hcp” value (reference: Lee and Zhou (1994)) is reported as > 9900 and the “Henry solubility constant Hcp” value (reference: Watts and Brimblecombe (1987)) is reported as 940.
For `C1=CCCCC1` [cyclohexene], the “Henry solubility constant Hcp” value (reference: Bakierowska and Trzeszczyński (2003)) was 0.00033 and the “Henry solubility constant Hcp” value (reference: Nielsen et al. (1994)) was 0.00025.
For `CC(O)C(F)(F)F` (configuration not stated) [1,1,1-trifluoro-2-propanol], the “Henry solubility constant Hcp” value (reference: Rochester and Symonds (1973)) was 0.45.
With `C1CC1` [cyclopropane] the “Henry solubility constant Hcp” value (reference: Saidman et al. (1966)) was 0.00011.
With `Brc1c(Br)c(Br)c(Oc2c(Br)c(Br)c(Br)c(Br)c2Br)c(Br)c1Br` [decabromodiphenyl ether] the “Henry solubility constant Hcp” value [1] was 18 and the “Henry solubility constant Hcp” value (reference: Long et al. (2017)) was 18.
In the case of `CC1(C)[C@H]2CC[C@](C)(C2)[C@H]1O` [(1R)-1,3,3-trimethylbicyclo[2.2.1]heptan-2-ol], the “Henry solubility constant Hcp” value (reference: Fichan et al. (1999)) is reported as 0.36.
With `[He]` [helium] the “Henry solubility constant Hcp” value (reference: Cady et al. (1922)) was 3.7e-06, the “Henry solubility constant Hcp” value (reference: Friedman (1954)) was 3.8e-06 and the “Henry solubility constant Hcp” value (reference: Krause and Benson (1989)) was 3.9e-06. For the same compound, the “Henry solubility constant Hcp” value (reference: Lannung (1930)) was 3.8e-06, the “Henry solubility constant Hcp” value (reference: Morrison and Johnstone (1954)) was 3.7e-06 and the “Henry solubility constant Hcp” value (reference: von Antropoff (1910)) was 6.3e-06.
For `CC(C)S` [2-propanethiol], the “Henry solubility constant Hcp” value (reference: Haimi et al. (2006)) was 0.0013 and the “Henry solubility constant Hcp” value (reference: Zin et al. (2016)) was 0.0016.
For `C=CCC` [1-butene], the “Henry solubility constant Hcp” value (reference: Serra and Palavra (2003)) was 4.5e-05.
With `CC(N)CN` (configuration not stated) [1,2-diaminopropane] the “Henry solubility constant Hcp” value (reference: Nguyen (2013)) was 1400.
For `Cc1cnc(C)cn1` [2,5-dimethylpyrazine], the “Henry solubility constant Hcp” value [7] was 5.5 and the “Henry solubility constant Hcp” value (reference: Marin et al. (1999)) was 7.1.
In the case of `CC(F)(F)Cl` [1-chloro-1,1-difluoroethane], the “Henry solubility constant Hcp” value [8] is reported as 0.00015, the “Henry solubility constant Hcp” value (reference: Kutsuna (2013)) is reported as 0.00015 and the “Henry solubility constant Hcp” value (reference: Maaßen (1995)) is reported as 0.00014. The “Henry solubility constant Hcp” value (reference: Reichl (1995)) was 0.00014.
For `Clc1cc(Cl)c(-c2c(Cl)ccc(Cl)c2Cl)cc1Cl` [2,2',3,4',5',6-hexachlorobiphenyl], the “Henry solubility constant Hcp” value [3] was 0.033.
For `COc1c(Cl)cc(Cl)cc1Cl` [1,3,5-trichloro-2-methoxybenzene], the “Henry solubility constant Hcp” value (reference: Wu et al. (2022a)) was 0.023.
With `C=CC(O)CCCCC` (configuration not stated) [1-octen-3-ol] the “Henry solubility constant Hcp” value [7] was 0.25, the “Henry solubility constant Hcp” value [6] was 0.13 and the “Henry solubility constant Hcp” value (reference: Wu et al. (2022a)) was 0.19.
For `CCC(O)CC` [3-pentanol], the “Henry solubility constant Hcp” value (reference: Fenclová et al. (2010)) was 0.64.
For `[Rn]` [radon], the “Henry solubility constant Hcp” value (reference: Lewis et al. (1987)) was 9.4e-05 and the “Henry solubility constant Hcp” value (reference: Ramstedt (1911)) was 0.0001.
In the case of `FC(F)(F)C(Cl)Cl` [2,2-dichloro-1,1,1-trifluoroethane], the “Henry solubility constant Hcp” value [8] is reported as 0.00032 and the “Henry solubility constant Hcp” value (reference: Kutsuna (2013)) is reported as 0.00023.
For `c1ccc2c(c1)[nH]c1ccccc12` [carbazole], the “Henry solubility constant Hcp” value (reference: Odabasi et al. (2006)) was 93.
